From patent US20170190671A1, “BIS(ARYL)CATECHOL DERIVATIVES AS HERBICIDES” (E I DU PONT DE NEMOURS AND COMPANY, priority 2014, published 2017)

Key:
Assay in all cases: Test C preemergence
Format in all cases: in vivo
[1] = system: Italian ryegrass (Lolium multiflorum); settings: Lolium multiflorum, pre-emergence, 336 h, scale 0 to 100, read-out: Plant response rating, Ryegrass, Italian
Outline: (§1)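 Seeds in loam-sand soil were treated preemergence, and plants at the 1- to 4-leaf stage (2-18 cm) in peat-based medium were sprayed postemergence, with test chemicals in a non-phytotoxic solvent containing surfactant. After 13-15 days in a greenhouse, response was rated visually against controls from 0 (no effect) to 100 (complete control).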

[2] = system: blackgrass (Alopecurus myosuroides); settings: Alopecurus myosuroides, pre-emergence, 336 h, scale 0 to 100, read-out: Plant response rating, Blackgrass
Outline: as §1

corn (Zea mays) = settings: Zea mays, pre-emergence, 336 h, scale 0 to 100
Outline: as §1

[3] = system: giant foxtail (Setaria faberii); settings: Setaria faberi, pre-emergence, 336 h, scale 0 to 100, read-out: Plant response rating, Foxtail, Giant
Outline: as §1

[4] = system: lambsquarters (Chenopodium album); settings: Chenopodium album, pre-emergence, 336 h, scale 0 to 100, read-out: Plant response rating, Lambsquarters
Outline: as §1

[5] = system: large (Lg) crabgrass (Digitaria sanguinalis); settings: Digitaria sanguinalis, pre-emergence, 336 h, scale 0 to 100, read-out: Plant response rating, Crabgrass, Large
Outline: as §1

[6] = system: morningglory (Ipomoea coccinea); settings: Ipomoea, pre-emergence, 336 h, scale 0 to 100, read-out: Plant response rating, Morningglory
Outline: as §1

[7] = system: oilseed rape (Brassica napus); settings: Brassica napus, pre-emergence, scale 0 to 100, read-out: Plant response rating, Oilseed Rape
Outline: as §1

[8] = system: pigweed (Amaranthus retroflexus); settings: Amaranthus retroflexus, pre-emergence, 336 h, scale 0 to 100, read-out: Plant response rating, Pigweed
Outline: as §1

[9] = system: ragweed (common ragweed, Ambrosia elatior); settings: Ambrosia artemisiifolia, pre-emergence, 336 h, scale 0 to 100, read-out: Plant response rating, Ragweed
Outline: as §1

soybean (Glycine max) = settings: Glycine max, pre-emergence, scale 0 to 100, read-out: Plant response rating, Soybean
Outline: as §1

[10] = system: velvetleaf (Abutilon theophrasti); settings: Abutilon theophrasti, pre-emergence, scale 0 to 100, read-out: Plant response rating, Velvetleaf
Outline: as §1

[11] = system: waterhemp (common waterhemp, Amaranthus rudis); settings: Amaranthus tuberculatus, pre-emergence, scale 0 to 100, read-out: Plant response rating, Waterhemp
Outline: as §1

[12] = system: winter wheat (Triticum aestivum); settings: Triticum aestivum, pre-emergence, 336 h, scale 0 to 100, read-out: Plant response rating, Wheat
Outline: as §1

[13] = system: yellow nutsedge (Cyperus esculentus); settings: Cyperus, pre-emergence, 336 h, scale 0 to 100, read-out: Plant response rating, Nutsedge, Yellow
Outline: as §1

**Q.** Which results are given for `Clc1cnc(Oc2cccc(Br)c2Oc2ncc(Cl)cn2)nc1` [Compound 19, 2,2′-[[3-bromo-1,2-phenylene]bis(oxy)]bis[5-chloropyrimidine]]?
**A.** pest or weed control at 31 g/ha ([1]; 31 g ai/ha, preemergence): 50%; pest or weed control at 62 g/ha ([1]; 62 g ai/ha, preemergence): 70%; pest or weed control at 125 g/ha ([1]; 125 g ai/ha, preemergence): 90%; pest or weed control at 16 g/ha ([1]; Preemergence, 16 g ai/ha): 5%; pest or weed control at 31 g/ha ([2]; 31 g ai/ha, preemergence): 40%; pest or weed control at 62 g/ha ([2]; 62 g ai/ha, preemergence): 90%; pest or weed control at 125 g/ha ([2]; 125 g ai/ha, preemergence): 95%; pest or weed control at 16 g/ha ([2]; Preemergence, 16 g ai/ha): 30%; Corn plant response rating (crop injury, 0 = no effect, 100 = complete kill) at 31 g/ha (corn (Zea mays); 31 g ai/ha, preemergence): 25%; Corn plant response rating (crop injury, 0 = no effect, 100 = complete kill) at 62 g/ha (corn (Zea mays); 62 g ai/ha, preemergence): 80%; Corn plant response rating (crop injury, 0 = no effect, 100 = complete kill) at 125 g/ha (corn (Zea mays); 125 g ai/ha, preemergence): 90%; Corn plant response rating (crop injury, 0 = no effect, 100 = complete kill) at 16 g/ha (corn (Zea mays); Preemergence, 16 g ai/ha): 5%; pest or weed control at 31 g/ha ([3]; 31 g ai/ha, preemergence): 100%; pest or weed control at 62 g/ha ([3]; 62 g ai/ha, preemergence): 100%; pest or weed control at 125 g/ha ([3]; 125 g ai/ha, preemergence): 100%; pest or weed control at 16 g/ha ([3]; Preemergence, 16 g ai/ha): 60%; pest or weed control at 31 g/ha ([4]; 31 g ai/ha, preemergence): 100%; pest or weed control at 62 g/ha ([4]; 62 g ai/ha, preemergence): 100%; pest or weed control at 125 g/ha ([4]; 125 g ai/ha, preemergence): 100%; pest or weed control at 16 g/ha ([4]; Preemergence, 16 g ai/ha): 98%; pest or weed control at 31 g/ha ([5]; 31 g ai/ha, preemergence): 100%; pest or weed control at 62 g/ha ([5]; 62 g ai/ha, preemergence): 100%; pest or weed control at 125 g/ha ([5]; 125 g ai/ha, preemergence): 100%; pest or weed control at 16 g/ha ([5]; Preemergence, 16 g ai/ha): 98%; pest or weed control at 31 g/ha ([6]; 31 g ai/ha, preemergence): 45%; pest or weed control at 62 g/ha ([6]; 62 g ai/ha, preemergence): 90%; pest or weed control at 125 g/ha ([6]; 125 g ai/ha, preemergence): 100%; pest or weed control at 16 g/ha ([6]; Preemergence, 16 g ai/ha): 5%; plant injury at 31 g/ha ([7]; 31 g ai/ha, preemergence): 85%; plant injury at 62 g/ha ([7]; 62 g ai/ha, preemergence): 98%; plant injury at 125 g/ha ([7]; 125 g ai/ha, preemergence): 100%; plant injury at 16 g/ha ([7]; Preemergence, 16 g ai/ha): 30%; pest or weed control at 31 g/ha ([8]; 31 g ai/ha, preemergence): 100%; pest or weed control at 62 g/ha ([8]; 62 g ai/ha, preemergence): 100%; pest or weed control at 125 g/ha ([8]; 125 g ai/ha, preemergence): 100%; pest or weed control at 16 g/ha ([8]; Preemergence, 16 g ai/ha): 100%; pest or weed control at 31 g/ha ([9]; 31 g ai/ha, preemergence): 30%; pest or weed control at 62 g/ha ([9]; 62 g ai/ha, preemergence): 55%; pest or weed control at 125 g/ha ([9]; 125 g ai/ha, preemergence): 60%; pest or weed control at 16 g/ha ([9]; Preemergence, 16 g ai/ha): 0%; plant injury at 31 g/ha (soybean (Glycine max); 31 g ai/ha, preemergence): 50%; plant injury at 62 g/ha (soybean (Glycine max); 62 g ai/ha, preemergence): 90%; plant injury at 125 g/ha (soybean (Glycine max); 125 g ai/ha, preemergence): 80%; plant injury at 16 g/ha (soybean (Glycine max); Preemergence, 16 g ai/ha): 25%; pest or weed control at 31 g/ha ([10]; 31 g ai/ha, preemergence): 98%; pest or weed control at 62 g/ha ([10]; 62 g ai/ha, preemergence): 100%; pest or weed control at 125 g/ha ([10]; 125 g ai/ha, preemergence): 100%; pest or weed control at 16 g/ha ([10]; Preemergence, 16 g ai/ha): 60%; pest or weed control at 31 g/ha ([11]; 31 g ai/ha, preemergence): 100%; pest or weed control at 62 g/ha ([11]; 62 g ai/ha, preemergence): 100%; pest or weed control at 125 g/ha ([11]; 125 g ai/ha, preemergence): 100%; pest or weed control at 16 g/ha ([11]; Preemergence, 16 g ai/ha): 100%; plant injury at 31 g/ha ([12]; 31 g ai/ha, preemergence): 25%; plant injury at 62 g/ha ([12]; 62 g ai/ha, preemergence): 40%; plant injury at 125 g/ha ([12]; 125 g ai/ha, preemergence): 85%; plant injury at 16 g/ha ([12]; Preemergence, 16 g ai/ha): 0%; pest or weed control at 31 g/ha ([13]; 31 g ai/ha, preemergence): 5%; pest or weed control at 62 g/ha ([13]; 62 g ai/ha, preemergence): 20%; pest or weed control at 125 g/ha ([13]; 125 g ai/ha, preemergence): 55%; pest or weed control at 16 g/ha ([13]; Preemergence, 16 g ai/ha): 0%
